# Experimental data taken from PMC5845353, “The selective cathepsin K inhibitor MIV-711 attenuates joint pathology in experimental animal models of osteoarthritis” (Journal of Translational Medicine, 2018).
# Several values for one entry are separate records, joined by “and”; a condition that tells them apart may be missing. Equal values may be shown once.
# System: dogs subjected to partial medial meniscectomy
# Assay: Dog partial medial meniscectomy study, microscopic lesion width and depth ratio; for Femur Cartilage Degeneration Width Sig: test concentration or dose not given here; for Femur Cartilage Degeneration Width Total: test concentration or dose not given here; for Femur Depth Ratio Any Matrix Change Mean: test concentration or dose not given here; for Femur Depth Ratio Any Matrix Change Zone 1: test concentration or dose not given here; for Femur Depth Ratio Any Matrix Change Zone 2: test concentration or dose not given here; for Tibia Cartilage Degeneration Width Sig: test concentration or dose not given here; for Tibia Cartilage Degeneration Width Total: test concentration or dose not given here; for Tibia Depth Ratio Any Matrix Change Zone 2: test concentration or dose not given here
# Type: in vivo
# Procedure: Measurements of width of total lesion of any type (chondrocyte death, cloning, fibrillation, proteoglycan loss) were taken across the tibial and femoral surfaces to give a total lesion width. Significant lesion width (matrix loss extending beyond superficial degeneration; i.e., lesions consisting of changes greater than just proteoglycan loss) was also determined in an attempt to convey possible treatment differences based on evaluation of more serious and permanent/irreversible cartilage matrix changes. Multiple depth measurements in areas of greatest lesion severity were taken for each of the 4 quadrants in each of the 3 anterior to posterior sections. These consisted of measurements taken from the surface (or estimated original surface when severe degenerative changes are present) to the point where cartilage appeared normal. A second measurement was taken in this same area to the depth of the tidemark so that the number expressed is a ratio of lesion depth vs. depth of tidemark. The mean values for each quadrant (medial to lateral) for the 3 anterior to posterior sections were determined as well as an overall mean for the joint. In this measurement, the minor changes consisting of proteoglycan loss only are not measured and only lesions with definite chondrocyte loss and sometimes fibrillation are included. This parameter should reflect a similar result to the significant width measurement as it is an indicator of beneficial effects on the more severe pathology.
# [1] = dog, individual animals of MIV-711 group
# [2] = dog, mean of zones, individual animals of MIV-711 group
# [3] = dog, mean of zones, versus Vehicle
# [4] = individual dogs of MIV-711 group, mean of the 4 quadrants
# [5] = individual dogs of MIV-711 group, width of any cartilage lesion, mean of 3 sections
# [6] = individual dogs of MIV-711 group, width of degeneration with score of 1 or greater
structure (smiles),measurement,setting,value
C#C[C@@H]1CN(C(=O)[C@H](CC(C)C)NC(=O)c2ccc(-c3nc(N4CCN(C)CC4)sc3F)cc2)[C@@H]2C(=O)CO[C@H]12 [MIV-711],Femur Cartilage Degeneration Width Sig,MIV-711 group mean,994.3 µm
same,Femur Cartilage Degeneration Width Total,MIV-711 group mean,3661.0 µm
same,Femur Mean DRAMC (Depth Ratio Any Matrix Change),MIV-711 group mean,0.084
same,Tibia Cartilage Degeneration Width Sig,MIV-711 group mean,2105.6 µm
same,Tibia Cartilage Degeneration Width Total,MIV-711 group mean,7336.0 µm
same,Tibia Mean DRAMC (Depth Ratio Any Matrix Change),MIV-711 group mean,0.13
same,"% inhibition, Femur Cartilage Degeneration Width Sig",MIV-711 group vs vehicle,11%
same,"% inhibition, Femur Cartilage Degeneration Width Total",MIV-711 group vs vehicle,13%
same,"% inhibition, Femur Mean DRAMC",MIV-711 group vs vehicle,-9%
same,"% inhibition, Tibia Cartilage Degeneration Width Sig",MIV-711 group vs vehicle,5%
same,"% inhibition, Tibia Cartilage Degeneration Width Total",MIV-711 group vs vehicle,0%
same,"% inhibition, Tibia Mean DRAMC",MIV-711 group vs vehicle,17%
same,Femur Depth Ratio Any Matrix Change Zone 1,"dog, group Mean",0.15
same,Femur Depth Ratio Any Matrix Change Zone 2,"dog, group Mean",0.13
same,Femur Depth Ratio Any Matrix Change Zone 3,"dog, group Mean",0.05
same,Femur Depth Ratio Any Matrix Change Zone 4,"dog, group Mean",0.01
same,Tibia Depth Ratio Any Matrix Change Zone 1,"dog, group Mean",0.05
same,Tibia Depth Ratio Any Matrix Change Zone 2,"dog, group Mean",0.31
same,Tibia Depth Ratio Any Matrix Change Zone 3,"dog, group Mean",0.11
same,Tibia Depth Ratio Any Matrix Change Zone 4,"dog, group Mean",0.04
same,Femur Depth Ratio Any Matrix Change Zone 1,[1],0.08 and 0.07 and 0.01 and 0.42 and 0.19 and 0.10 and 0.09 and 0.22 and 0.50 and 0.06 and 0.23
same,Femur Depth Ratio Any Matrix Change Zone 2,[1],0.13 and 0.16 and 0.00 and 0.36 and 0.08 and 0.10 and 0.01 and 0.06 and 0.09 and 0.48 and 0.05 and 0.24
same,Femur Depth Ratio Any Matrix Change Zone 3,[1],0.04 and 0.03 and 0.00 and 0.33 and 0.01 and 0.02 and 0.21
same,Femur Depth Ratio Any Matrix Change Zone 4,[1],0.00 and 0.01 and 0.02 and 0.06
same,Tibia Depth Ratio Any Matrix Change Zone 1,[1],0.06 and 0.08 and 0.01 and 0.09 and 0.03 and 0.13 and 0.00 and 0.15 and 0.11
same,Tibia Depth Ratio Any Matrix Change Zone 2,[1],0.28 and 0.23 and 0.35 and 0.24 and 0.27 and 0.36 and 0.39 and 0.22 and 0.47 and 0.33 and 0.30 and 0.19
same,Tibia Depth Ratio Any Matrix Change Zone 3,[1],0.14 and 0.11 and 0.18 and 0.08 and 0.15 and 0.07 and 0.24 and 0.06 and 0.04 and 0.19 and 0.03 and 0.05
same,Tibia Depth Ratio Any Matrix Change Zone 4,[1],0.05 and 0.04 and 0.00 and 0.07 and 0.06 and 0.01 and 0.03 and 0.02
same,Femur Depth Ratio Any Matrix Change Mean,"dog, mean of zones, group Mean",0.08
same,Tibia Depth Ratio Any Matrix Change Mean,"dog, mean of zones, group Mean",0.13
same,Femur Depth Ratio Any Matrix Change Mean,[2],0.06 and 0.07 and 0.00 and 0.28 and 0.04 and 0.03 and 0.01 and 0.08 and 0.31 and 0.12
same,Tibia Depth Ratio Any Matrix Change Mean,[2],0.13 and 0.11 and 0.17 and 0.09 and 0.15 and 0.16 and 0.07 and 0.14 and 0.20
same,"% inhibition, Femur Depth Ratio Any Matrix Change Mean",[3],-9%
same,"% inhibition, Tibia Depth Ratio Any Matrix Change Mean",[3],17%
same,"% inhibition, Femur Depth Ratio Any Matrix Change Zone 1","dog, versus Vehicle",-39%
same,"% inhibition, Femur Depth Ratio Any Matrix Change Zone 2","dog, versus Vehicle",10%
same,"% inhibition, Femur Depth Ratio Any Matrix Change Zone 3","dog, versus Vehicle",-12%
same,"% inhibition, Femur Depth Ratio Any Matrix Change Zone 4","dog, versus Vehicle",44%
same,"% inhibition, Tibia Depth Ratio Any Matrix Change Zone 1","dog, versus Vehicle",55%
same,"% inhibition, Tibia Depth Ratio Any Matrix Change Zone 2","dog, versus Vehicle",-2%
same,"% inhibition, Tibia Depth Ratio Any Matrix Change Zone 3","dog, versus Vehicle",23%
same,"% inhibition, Tibia Depth Ratio Any Matrix Change Zone 4","dog, versus Vehicle",19%
same,Femur Mean DRAMC (Depth Ratio Any Matrix Change),[4],0.04 and 0.06 and 0.07 and 0.00 and 0.28 and 0.03 and 0.01 and 0.08 and 0.31 and 0.12
same,Tibia Mean DRAMC (Depth Ratio Any Matrix Change),[4],0.07 and 0.13 and 0.11 and 0.17 and 0.09 and 0.15 and 0.16 and 0.14 and 0.20
same,Femur Cartilage Degeneration Width Total,[5],3885 µm and 4200 µm and 4410 µm and 630 µm and 5040 µm and 3780 µm and 2310 µm and 3990 µm and 5880 µm and 2730 µm and 3675 µm
same,Tibia Cartilage Degeneration Width Total,[5],6405 µm and 6510 µm and 8190 µm and 7560 µm and 8400 µm and 7980 µm and 6195 µm and 6930 µm and 6615 µm and 7245 µm and 7770 µm
same,Femur Cartilage Degeneration Width Sig,[6],0 µm and 735 µm and 1260 µm and 3465 µm and 200 µm and 968 µm and 420 µm and 1890 µm and 733 µm and 815 µm and 3360 µm and 1068 µm
same,Tibia Cartilage Degeneration Width Sig,[6],1638 µm and 1890 µm and 2310 µm and 1470 µm and 2520 µm and 2205 µm and 1155 µm and 3150 µm and 1575 µm and 1218 µm and 2163 µm and 4515 µm and 1785 µm
